Test results reported in PubChem BioAssay (NCI).
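Protocol summary: plate cells (96-well), add compound at 5 concentrations, incubate 48 h, interpolate endpoints linearly. At the GI50, growth is halved. TGI: total growth inhibition.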 Where a SMILES comes first, the peptide text is derived from it. The star is where a group is joined. Boc = CC(C)(C)OC(=O)*

Columns and labels:
Assay in all cases: inhibition of tumour cell growth, NCI panel, 48 h
HOP-62 NSCLC = tested on: HOP-62 NSCLC
HS 578T breast = tested on: HS 578T breast
HT29 colon = tested on: HT29 colon
LOX IMVI melanoma = tested on: LOX IMVI melanoma
NCI-H23 lung = tested on: NCI-H23 lung
RPMI-8226 leukemia = tested on: RPMI-8226 leukemia
SK-MEL-2 melanoma = tested on: SK-MEL-2 melanoma
UO-31 renal = tested on: UO-31 renal
MCF7 breast = tested on: MCF7 breast
OVCAR-3 ovarian = tested on: OVCAR-3 ovarian

| SMILES | TGI (HOP-62 NSCLC) [µM] | TGI (HS 578T breast) [µM] | TGI (HT29 colon) [µM] | TGI (LOX IMVI melanoma) [µM] | TGI (NCI-H23 lung) [µM] | TGI (RPMI-8226 leukemia) [µM] | TGI (SK-MEL-2 melanoma) [µM] | TGI (UO-31 renal) [µM] | TGI (MCF7 breast) [µM] | TGI (OVCAR-3 ovarian) [µM] | GI50 (LOX IMVI melanoma) [nM] | GI50 (MCF7 breast) [nM] | GI50 (NCI-H23 lung) [nM] | GI50 (OVCAR-3 ovarian) [nM] | GI50 (UO-31 renal) [nM] |
| --- | --- | --- | --- | --- | --- | --- | --- | --- | --- | --- | --- | --- | --- | --- | --- |
| S=C1C(=Nc2ccccc2)N(c2ccccc2)/C(=N\c2ccccn2)N1c1ccccc1 | 30.1 | 39.5 | 24.8 | 21.9 | 25 | > 100 | 24.6 | 26.1 | – | – | – | – | – | – | – |
| O=C1OC2(C(F)(F)F)Oc3ccccc3CN2C12CCCCC2 (stereo unspecified) | 91.9 | – | > 100 | 52.7 | 95.2 | – | – | 84.3 | > 100 | > 100 | – | – | – | – | – |
| CCOC(=O)/C(C#N)=C/c1ccc(CO)o1 | > 100 | > 100 | > 100 | > 100 | > 100 | > 100 | – | – | > 100 | > 100 | – | – | – | – | – |
| Oc1ccc2c(c1)CC[N+]1=C2CCC2CCCC21 (stereo unspecified) | – | – | > 100 | > 100 | > 100 | – | > 100 | > 100 | – | > 100 | – | – | – | – | – |
| CN(C)CCOC(=O)c1ccc(N)cc1 | > 100 | > 100 | > 100 | > 100 | > 100 | 75.2 | – | > 100 | > 100 | > 100 | – | – | – | – | – |
| [N-]=[N+]=NC1CC(n2cc(COCC(F)(F)F)c(=O)[nH]c2=O)OC1CO (stereo unspecified) | > 100 | – | > 100 | > 100 | > 100 | > 100 | > 100 | > 100 | – | > 100 | – | – | – | – | – |
| CCOC(=O)CCc1c(C(=O)OCC)[nH]c(/C=C2\NC(=O)C(C)=C2CC)c1C | 27.6 | – | > 100 | > 100 | – | > 100 | 42.5 | > 100 | > 100 | 49.6 | – | – | – | – | – |
| O=C(NNc1cn[nH]c(=O)c1Cl)/C(=C/c1ccc2c(c1)OCO2)NC(=O)c1ccccc1 | > 100 | – | > 100 | > 100 | > 100 | – | > 100 | > 100 | > 100 | > 100 | – | – | – | – | – |
| COC(=O)C(Cc1c[nH]c2ccccc12)NC(=O)C(Cc1c[nH]c2ccccc12)NC(=O)C(Cc1c[nH]c2ccccc12)NC(=O)C(Cc1c[nH]c2ccccc12)NC(=O)OC(C)(C)C (stereo unspecified) (Boc-WWWW-OMe; configuration not given here) | 67 | – | 49 | 28 | 92.3 | 26 | – | > 100 | 0.0884 | 40.2 | – | – | – | – | – |
| NC(c1ccccc1)(C(F)(F)F)P1(=O)OC(=O)c2ccccc2O1 (stereo unspecified) | > 100 | – | > 100 | – | > 100 | > 100 | > 100 | > 100 | > 100 | > 100 | – | – | – | – | – |
| OCC(O)C1OC2CC1Nc1ccccc1N2 (stereo unspecified) | > 100 | > 100 | > 100 | > 100 | > 100 | > 100 | > 100 | > 100 | – | > 100 | – | – | – | – | – |
| CC(=O)OCc1cc(=O)n(C)c2c3c4c(cc12)c(C)cc(=O)n4CO3 | 4.3 | – | 8.81 | 8.6 | 5.01 | 11.1 | 3.65 | 26.5 | 17 | 7.74 | – | – | – | – | – |
| O=c1[nH]c(=O)n(COCc2ccccc2)c2ccc([N+](=O)[O-])cc12 | – | – | > 100 | > 100 | – | – | > 100 | > 100 | > 100 | > 100 | – | – | – | – | – |
| O=C1CSC2=NCC3(NN12)c1ccccc1-c1ccccc13 | > 10 | > 10 | > 10 | > 10 | > 10 | > 10 | – | > 10 | > 10 | – | – | – | – | – | – |
| CC(=NCCN(CCN=C(C)c1c(O)cc(C)oc1=O)CCN=C(C)c1c(O)cc(C)oc1=O)c1c(O)cc(C)oc1=O | > 100 | > 100 | > 100 | – | – | > 100 | – | > 100 | > 100 | – | – | – | – | – | – |
| CSc1nc(NC2OCC(O)C(O)C2O)c(N)c(=O)n1C (stereo unspecified) | > 100 | – | > 100 | > 100 | > 100 | > 100 | > 100 | > 100 | > 100 | > 100 | – | – | – | – | – |
| Fc1ccc(C2CC(c3cccc(Nc4ccncc4)c3)=NN2c2cc(Cl)cc(Cl)c2)cc1 (stereo unspecified) | – | – | – | 2.94 | 3.19 | – | – | 2.66 | 4.37 | 3.32 | 1600 | 1950 | 1700 | 1800 | 1360 |
| O=c1[nH]c(=O)n(COCc2ccccc2)c2ccc(Br)cc12 | – | – | > 100 | > 100 | – | – | > 100 | > 100 | > 100 | > 100 | – | – | – | – | – |
| O=C(NC1(C(=O)NNc2nnc(-c3ccccc3)c(-c3ccccc3)n2)C(c2ccccc2)C(c2ccccc2)=NN1c1ccccc1)c1ccccc1 (stereo unspecified) | > 100 | > 100 | > 100 | – | > 100 | – | > 100 | > 100 | – | > 100 | – | – | – | – | – |
| CCOP(=O)(OCC)/C(=C\N1C(=O)CC(=O)NC1=S)C(=O)OC | > 100 | – | > 100 | > 100 | > 100 | – | > 100 | > 100 | > 100 | > 100 | – | – | – | – | – |
